Source: the NIST ThermoML archive (doi:10.1016/j.fluid.2007.06.006)
± gives the expanded uncertainty stated by the source.

Conditions: Liquid

| vapor or sublimation pressure (355.83 K) [kPa] | vapor or sublimation pressure (365.99 K) [kPa] | vapor or sublimation pressure (373.87 K) [kPa] | vapor or sublimation pressure (380.27 K) [kPa] | vapor or sublimation pressure (385.71 K) [kPa] | vapor or sublimation pressure (390.45 K) [kPa] | vapor or sublimation pressure (392.2 K) [kPa] | vapor or sublimation pressure (377.95 K) [kPa] | vapor or sublimation pressure (389.37 K) [kPa] | vapor or sublimation pressure (398.01 K) [kPa] | vapor or sublimation pressure (405.04 K) [kPa] | vapor or sublimation pressure (411.02 K) [kPa] | vapor or sublimation pressure (416.25 K) [kPa] | vapor or sublimation pressure (418.18 K) [kPa] | SMILES |
| --- | --- | --- | --- | --- | --- | --- | --- | --- | --- | --- | --- | --- | --- | --- |
| 26.7 ± 0.2 | 40 ± 0.2 | 53.3 ± 0.2 | 66.7 ± 0.2 | 80 ± 0.2 | 93.3 ± 0.3 | 98.7 ± 0.3 | – | – | – | – | – | – | – | COCC(C)O (centres undefined) [1-methoxy-2-propanol] |
| – | – | – | – | – | – | – | 26.7 ± 0.2 | 40 ± 0.2 | 53.3 ± 0.2 | 66.7 ± 0.2 | 80 ± 0.2 | 93.3 ± 0.3 | 98.7 ± 0.3 | COCC(C)OC(C)=O (centres undefined) [1-methoxy-2-propyl acetate] |
